# From patent publication US20050080113A1, “Medicinal compositions” (priority 2001, published 2005)
row,Structure (SMILES),melting point
1,"Cc1cccc(-c2nc(-c3ccc(S(C)(=O)=O)cc3)sc2-c2ccnc(CO)c2)c1 [H 72, 4 [4 (3 methylphenyl)-2 (4 methylsulfonylphenyl)-1,3 thiazol-5 yl]-2 pyridylmethanol]",172 to 173 °C
2,"CCc1nc(-c2cccc(Br)c2)c(-c2ccnc(NC(=O)OC(C)(C)C)c2)s1 [H 75-1, 4 (3 bromophenyl)-5 [2-(tert-butoxycarbonylamino)-4 pyridyl]-2 ethyl-1,3 thiazole]",172 to 174 °C
3,"CCc1nc(-c2cccc(Br)c2)c(-c2ccnc(N)c2)s1 [H 75-2, 4 [4 (3 bromophenyl)-2-ethyl-1,3 thiazol-5 yl]-2 pyridylamine]",132 to 134 °C
4,"CCc1nc(-c2cccc(C#N)c2)c(-c2ccnc(N)c2)s1 [H 76, 4 [4 (3 cyanophenyl)-2 ethyl-1,3 thiazol-5 yl]-2 pyridylamine]",178 to 179 °C
5,"CCc1nc(-c2cccc(C(=O)O)c2)c(-c2ccnc(N)c2)s1 [H 77, 3 [5 (2 amino-4 pyridyl)-2 ethyl-1,3 thiazol-4 yl]benzoic acid]",273 to 274 °C
6,"CCc1nc(-c2cccc(C(=O)OC)c2)c(-c2ccnc(N)c2)s1 [H 78, methyl 3 [5 (2 amino-4 pyridyl)-2 ethyl-1,3 thiazol-4-yl]benzoate]",173 to 174 °C
7,"CCc1nc(-c2ccccc2)c(-c2ccnc(NC(=O)OC(C)(C)C)c2)s1 [H 79-1, 5 [2 (tert-butoxycarbonylamino)-4 pyridyl]-2 ethyl-4 phenyl-1,3 thiazole]",154 to 155 °C
8,"CC(C)(C)OC(=O)N1CCC(c2nc(-c3cccc(Cl)c3)c(-c3ccnc(N)c3)s2)CC1 [H 80, 4 [2 (1 tert-butoxycarbonylpiperidin-4 yl)-4 (3 chlorophenyl)-1,3 thiazol-5 yl]-2 pyridylamine]",143 to 145 °C
9,"CCc1nc(-c2ccccc2)c(-c2ccnc(NC(C)=O)c2)s1 [H 82-1, N-[4 (2 ethyl-4 phenyl-1,3-thiazol-5 yl)-2 pyridyl]acetamide]",175 to 176 °C
10,"CCc1nc(-c2ccc(F)cc2)c(-c2ccnc(NC(C)=O)c2)s1 [H 82-2, N-[4 [2 ethyl-4 (4-fluorophenyl)-1,3 thiazol-5 yl]-2 pyridyl]acetamide]",190 to 191 °C
11,"CCc1nc(-c2cccc(C(F)(F)F)c2)c(-c2ccnc(NC(C)=O)c2)s1 [H 82-3, N-[4 [2 ethyl-4 (3-trifluoromethylphenyl)-1,3 thiazol-5 yl]-2 pyridyl]acetamide]",146 to 147 °C
12,"CCc1nc(-c2ccc(F)c(C)c2)c(-c2ccnc(NC(C)=O)c2)s1 [H 82-4, N-[4 [2 ethyl-4 (4 fluoro-3 methylphenyl)-1,3 thiazol-5 yl]-2 pyridyl]acetamide]",142 to 143 °C
13,"CCc1nc(-c2cccc(F)c2)c(-c2ccnc(NC(C)=O)c2)s1 [H 82-5, N-[4 [2 ethyl-4 (3-fluorophenyl)-1,3 thiazol-5 yl]-2 pyridyl]acetamide]",141 to 142 °C
14,"CCc1nc(-c2ccc(Cl)cc2)c(-c2ccnc(NC(C)=O)c2)s1 [H 82-6, N-[4 [4 (4 chlorophenyl)-2-ethyl-1,3 thiazol-5 yl]-2 pyridyl]acetamide]",190 to 191 °C
15,"CCc1cccc(-c2nc(CC)sc2-c2ccnc(NC(C)=O)c2)c1 [H 82-7, N-[4 [2 ethyl-4 (3-ethylphenyl)-1,3 thiazol-5 yl]-2 pyridyl]acetamide]",112 to 113 °C
16,"CCc1nc(-c2cccc(C(C)C)c2)c(-c2ccnc(NC(C)=O)c2)s1 [H 82-8, N-[4 [2 ethyl-4 [3 (1-methylethyl)phenyl]-1,3 thiazol-5 yl]-2 pyridyl]acetamide]",116 to 117 °C
17,"CCCc1cccc(-c2nc(CC)sc2-c2ccnc(NC(C)=O)c2)c1 [H 82-9, N-[4 [2 ethyl-4 (3-propylphenyl)-1,3 thiazol-5 yl]-2 pyridyl]acetamide]",121 to 122 °C
